In patent US12338220B2, “Antiviral pyrazolopiridinone compounds” (Novartis AG, priority 2019, dated 2025) one finds EC50 and IC50 data, which are given here for 23 molecules.

Structures can show the parent of a compound that is named as a salt. Where two headings read alike, the source gives them in different places.

Test [1] has as its system CMV. The test can be described thus: microbe, parasite or virus in culture. It is filed as cell-based. To be noted: Human betaherpesvirus 5, 72 h, read-out: CMV-Luc Cellular EC50, NN-NHDF cells, MOI 1, 72 hrs.
The target in test [2] is CMV-polymerase (Human cytomegalovirus (strain AD169) (HHV-5) (Human herpesvirus 5), UniProt P08546). The test can be described thus: biochemical.
Setting [3] is: read-out: CMV-polymerase Biochemical IC50.
[4] abbreviates: CMV-polymerase Biochemical IC50.

On to `Cn1nc(C(=O)NCc2ccc(C#N)cc2)c2c1C(=O)N(CC1(S(=O)(=O)N3CC[C@@H](N)C3)CC1)CC2` [Example 141, (R)-6-((1-((3-Aminopyrrolidin-1-yl)sulfonyl)cyclopropyl)methyl)-N-(4-cyanobenzyl)-1-methyl-7-oxo-4,5,6,7-tetrahydro-1H-pyrazolo[3,4-c]pyridine-3-carboxamide], for which the concentration giving a half-maximal response (EC50) in test [1] turned out to be 51 nM. In addition, the half-maximal inhibitory concentration (IC50) in test [2] (setting [3]) was found to be 13 nM.
Regarding `Cn1nc(-c2nc(Cc3ccc(C#N)cc3)no2)c2c1C(=O)N(CC1(S(=O)(=O)C3CC3)CC1)CC2` [Example 27, 4-((5-(6-((1-(Cyclopropylsulfonyl)cyclopropyl)methyl)-1-methyl-7-oxo-4,5,6,7-tetrahydro-1H-pyrazolo[3,4-c]pyridin-3-yl)-1,2,4-oxadiazol-3-yl)methyl)benzonitrile], the half-maximal effective concentration (EC50) in test [1] was 211 nM. Moreover, the half-inhibitory concentration (IC50) in test [2] (setting [3]) was 7 nM.
The matching figures for `Cc1ncccc1NS(=O)(=O)C1(CN2CCc3c(C(=O)NCc4ccc(C#N)cc4)nn(C)c3C2=O)CC1` [Example 161, N-(4-Cyanobenzyl)-1-methyl-6-((1-(N-(2-methylpyridin-3-yl)sulfamoyl)cyclopropyl)methyl)-7-oxo-4,5,6,7-tetrahydro-1H-pyrazolo[3,4-c]pyridine-3-carboxamide]: 61 nM and 2 nM.
Regarding `Cn1nc(C(=O)NCc2ccc(C#N)cc2)c2c1C(=O)N(CC1(S(=O)(=O)N3CCC(O)CC3)CC1)CC2` [Example 125, N-(4-Cyanobenzyl)-6-((1-((4-hydroxypiperidin-1-yl)sulfonyl)cyclopropyl)methyl)-1-methyl-7-oxo-4,5,6,7-tetrahydro-1H-pyrazolo[3,4-c]pyridine-3-carboxamide], the EC50 in test [1] amounted to 196 nM. For the same molecule, the 50% inhibitory concentration (IC50) in test [2] (setting [3]) amounted to 3 nM.
For the molecule `CC1(C)C(=O)NCCOCCn2nc(C(=O)NCc3ccc(C#N)cc3)c3c2C(=O)N(CC3)CC2(CC2)S1(=O)=O` [Example 241, Lactam macrocycle N-(4-cyanobenzyl)carboxamide], the EC50 in test [1] came to 467 nM. The IC50 in test [2] (setting [4]) turned out to be 13 nM.
Consider `Cn1nc(-c2nnn(Cc3ccc(C#N)cc3)n2)c2c1C(=O)N(CC1(S(=O)(=O)C3CC3)CC1)CC2` [Example 29, 4-((5-(6-((1-(Cyclopropylsulfonyl)cyclopropyl)methyl)-1-methyl-7-oxo-4,5,6,7-tetrahydro-1H-pyrazolo[3,4-c]pyridin-3-yl)-2H-tetrazol-2-yl)methyl)benzonitrile], for which the concentration giving a half-maximal response (EC50) in test [1] turned out to be 80 nM. Besides, the concentration for half-maximal inhibition (IC50) in test [2] (setting [3]) came to 1 nM.
For `CN(C)/C=N/S(=O)(=O)C1(CN2CCc3c(C(=O)NCc4ccc(Cl)cc4)nn(C)c3C2=O)CC1` [Example 122, (E)-N-(4-chlorobenzyl)-6-((1-(N-((dimethylamino)methylene)sulfamoyl)cyclopropyl)methyl)-1-methyl-7-oxo-4,5,6,7-tetrahydro-1H-pyrazolo[3,4-c]pyridine-3-carboxamide], in that order: 298 nM and 7 nM.
For `C[C@H](N)C(=O)NCC(C)(C)S(=O)(=O)C1(CN2CCc3c(C(=O)NCc4ccc(C#N)cc4)nn(C)c3C2=O)CC1` [Example 76, (S)-6-((1-((1-(2-Aminopropanamido)-2-methylpropan-2-yl)sulfonyl)cyclopropyl)methyl)-N-(4-cyanobenzyl)-1-methyl-7-oxo-4,5,6,7-tetrahydro-1H-pyrazolo[3,4-c]pyridine-3-carboxamide], in that order: 84 nM and 10 nM.
For `CN(CCO)S(=O)(=O)C1(CN2CCc3c(C(=O)NCc4ccc(Cl)cc4)nn(C)c3C2=O)CC1` [Example 144, N-(4-Chlorobenzyl)-6-((1-(N-(2-hydroxyethyl)-N-methylsulfamoyl)cyclopropyl)methyl)-1-methyl-7-oxo-4,5,6,7-tetrahydro-1H-pyrazolo[3,4-c]pyridine-3-carboxamide], in that order: 44 nM and 4 nM.
In the case of `CS(=O)(=O)C1(CN2CCc3c(C(=O)NCc4ccc(C#N)cc4)nn(CC4(CO)CC4)c3C2=O)CC1` [Example 48, N-(4-Cyanobenzyl)-1-((1-(hydroxymethyl)cyclopropyl)methyl)-6-((1-(methylsulfonyl)cyclopropyl)methyl)-7-oxo-4,5,6,7-tetrahydro-1H-pyrazolo[3,4-c]pyridine-3-carboxamide], in test [1], the EC50 turned out to be 331 nM. In test [2] (setting [4]), this molecule registered an IC50 of 11 nM.
Take `Cn1nc(C(=O)NCc2ccc(C#N)cc2)c2c1C(=O)N(CC1(S(=O)(=O)C(C)(C)COC(F)F)CC1)CC2` [Example 58, N-(4-Cyanobenzyl)-6-((1-((1-(difluoromethoxy)-2-methylpropan-2-yl)sulfonyl)cyclopropyl)methyl)-1-methyl-7-oxo-4,5,6,7-tetrahydro-1H-pyrazolo[3,4-c]pyridine-3-carboxamide]: the EC50 in test [1] is 25 nM. The IC50 in test [2] (setting [3]) amounted to 1 nM.
With `Cn1nc(C(=O)NCc2ccc(C#N)cc2)c2c1C(=O)N(CC1(S(=O)(=O)NCCCN)CC1)CC2` [Example 134, 6-((1-(N-(3-Aminopropyl)sulfamoyl)cyclopropyl)methyl)-N-(4-cyanobenzyl)-1-methyl-7-oxo-4,5,6,7-tetrahydro-1H-pyrazolo[3,4-c]pyridine-3-carboxamide], in test [1], the 50% effective concentration (EC50) stood at 443 nM. For the same molecule, in test [2] (setting [3]), the half-maximal inhibitory concentration (IC50) was 31 nM.
The matching figures for `CC(C)(O)Cn1nc(C(=O)NCc2ccc(C#N)cc2)c2c1C(=O)N(CC1(S(=O)(=O)C(C)(C)CO)CC1)CC2` [Example 235, N-(4-Cyanobenzyl)-6-((1-((1-hydroxy-2-methylpropan-2-yl)sulfonyl)cyclopropyl)methyl)-1-(2-hydroxy-2-methylpropyl)-7-oxo-4,5,6,7-tetrahydro-1H-pyrazolo[3,4-c]pyridine-3-carboxamide]: 31 nM and 1 nM.
For `Cn1nc(C(=O)NCc2ccc(C#N)cn2)c2c1C(=O)N(CC1(S(=O)(=O)C3CC3)CC1)CC2` [Example 14, N-((5-Cyanopyridin-2-yl)methyl)-6-((1-(cyclopropylsulfonyl)cyclopropyl)methyl)-1-methyl-7-oxo-4,5,6,7-tetrahydro-1H-pyrazolo[3,4-c]pyridine-3-carboxamide], in that order: 585 nM and 95 nM.
For `CC(C)(O)Cn1nc(C(=O)NCc2ccc(Cl)cc2)c2c1C(=O)N(CC1(S(C)(=O)=O)CC1)CC2` [Example 231, N-(4-Chlorobenzyl)-1-(2-hydroxy-2-methylpropyl)-6-((1-(methylsulfonyl)cyclopropyl)methyl)-7-oxo-4,5,6,7-tetrahydro-1H-pyrazolo[3,4-c]pyridine-3-carboxamide], in that order: 88 nM and 7 nM.
For the molecule `Cn1nc(C(=O)NCc2ccc(Cl)cc2)c2c1C(=O)N(CC1(S(=O)(=O)NCCO)CC1)CC2` [Example 143, N-(4-Chlorobenzyl)-6-((1-(N-(2-hydroxyethyl)sulfamoyl)cyclopropyl)methyl)-1-methyl-7-oxo-4,5,6,7-tetrahydro-1H-pyrazolo[3,4-c]pyridine-3-carboxamide], the EC50 in test [1] is 138 nM. Also, the IC50 in test [2] (setting [3]) was found to be 19 nM.
As to `Cn1nc(C(=O)NCc2ccc(C#N)cc2)c2c1C(=O)N(CC1(S(C)(=O)=O)CC1)CC2` [Example 21, N-(4-Cyanobenzyl)-1-methyl-6-((1-(methylsulfonyl)cyclopropyl)methyl)-7-oxo-4,5,6,7-tetrahydro-1 H-pyrazolo[3,4-c]pyridine-3-carboxamide], in test [1], the EC50 came to 147 nM. Further, the half-inhibitory concentration (IC50) in test [2] (setting [3]) was determined as 9 nM.
For `CCS(=O)(=O)C1(CN2CCc3c(C(=O)NCc4ccc(C#N)cc4)nn(C)c3C2=O)CC1` [Example 20, N-(4-Cyanobenzyl)-6-((1-(ethylsulfonyl)cyclopropyl)methyl)-1-methyl-7-ox0-4,5,6,7-tetrahydro-1 H-pyrazolo[3,4-c]pyridine-3-carboxamide], in that order: 106 nM and 6 nM.
The matching figures for `Cn1nc(C(=O)NCc2ccc(Cl)cc2)c2c1C(=O)N(CC1(S(=O)(=O)C(C)(C)[C@H](N)CO)CC1)CC2` [Example 214, (R)-6-((1-((3-Amino-4-hydroxy-2-methylbutan-2-yl)sulfonyl)cyclopropyl)methyl)-N-(4-chlorobenzyl)-1-methyl-7-oxo-4,5,6,7-tetrahydro-1H-pyrazolo[3,4-c]pyridine-3-carboxamide hydrochloride]: 42 nM and 3 nM.
Turning to `Cn1nc(C(=O)NCc2ccc(C#N)cc2)c2c1C(=O)N(CC1(S(=O)(=O)C(C)(C)CN3CC4CC3CO4)CC1)CC2` (stereo not shown) [Example 64, 6-((1-((1-(2-Oxa-5-azabicyclo[2.2.1]heptan-5-yl)-2-methylpropan-2-yl)sulfonyl)cyclopropyl)methyl)-N-(4-cyanobenzyl)-1-methyl-7-oxo-4,5,6,7-tetrahydro-1H-pyrazolo[3,4-c]pyridine-3-carboxamide], in test [1], the 50% effective concentration (EC50) was 106 nM. For the same molecule, in test [2] (setting [3]), the concentration for half-maximal inhibition (IC50) turned out to be 4 nM.
For `Cc1cc(NS(=O)(=O)C2(CN3CCc4c(C(=O)NCc5ccc(Cl)cc5)nn(C)c4C3=O)CC2)no1` [Example 166, N-(4-Chlorobenzyl)-1-methyl-6-((1-(N-(5-methylisoxazol-3-yl)sulfamoyl)cyclopropyl)methyl)-7-oxo-4,5,6,7-tetrahydro-1H-pyrazolo[3,4-c]pyridine-3-carboxamide], in that order: 88 nM and 1 nM.
For `Cn1ccc(NS(=O)(=O)C2(CN3CCc4c(C(=O)NCc5ccc(C#N)cc5)nn(C)c4C3=O)CC2)n1` [Example 156, N-(4-Cyanobenzyl)-1-methyl-6-((1-(N-(1-methyl-1H-pyrazol-3-yl)sulfamoyl)cyclopropyl)methyl)-7-oxo-4,5,6,7-tetrahydro-1H-pyrazolo[3,4-c]pyridine-3-carboxamide], in that order: 100 nM and 3 nM.
Take `N#Cc1ccc(CNC(=O)c2nn(C3CC3)c3c2CCN(CC2(S(=O)(=O)C4CC4)CC2)C3=O)cc1` [Example 43, N-(4-Cyanobenzyl)-1-cyclopropyl-6-((1-(cyclopropylsulfonyl)cyclopropyl)methyl)-7-oxo-4,5,6,7-tetrahydro-1H-pyrazolo[3,4-c]pyridine-3-carboxamide]: the EC50 in test [1] was determined as 66 nM. Further, it took 2 nM to reach half-maximal inhibition in test [2] (setting [4]) (IC50).
